Patent US9988381B2, “Five-member-heterocycle fused pyridine compounds, method of producing the same, and use thereof” (SHANGHAI INSTITUTE OF MATERIA MEDICA, CHINESE ACADEMY OF …, priority 2013, dated 2018)
Where two headings read alike, the source gives them in different places.

Experiments:
[1] = target: T1, c-Met kinase domain recombinant protein (Homo sapiens, UniProt P08581); assay: biochemical; conditions: for inhibition at 0.1 µM: read-out: Average inhibition rate at 0.1 μM (%); for inhibition at 1 µM: read-out: Average inhibition rate at 1 μM (%); for inhibition at 10 µM: read-out: Average inhibition rate at 10 μM (%)
T1 construct: 50 μL diluted solution of c-Met kinase domain recombinant protein in reaction buffer was added to initiate the reaction
Method in brief: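 ELISA on plates coated with Poly(Glu,Tyr)4:1 (20 μg/mL coating solution). Recombinant c-Met kinase domain reacted with 5 μM ATP in HEPES pH 7.4 with Mg/Mn, vanadate and DTT for 1 hour at 37° C. Phosphotyrosine was detected with PY99 and HRP secondary antibody, read at 490 nm, and IC50 was taken from a four-parameter fit.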

[2] = target: T1, c-Met kinase domain recombinant protein; assay: biochemical; conditions: read-out: Inhibition rate at 10 μM (%)
Method in brief: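 ELISA on plates coated with Poly(Glu,Tyr)4:1 (20 μg/mL), kinase reaction with c-Met kinase domain and ATP in HEPES pH 7.4 buffer with MgCl2, MnCl2, Na3VO4 and DTT, 1 h at 37 °C. Phosphotyrosine detected with PY99 and HRP secondary antibody, read at 490 nm; inhibition rate calculated against ATP-free control.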

[3] = system: EBC-1 cell; assay: Test III: growth inhibition of non-small cell carcinoma EBC-1 cell (SRB); assay type: cell-based; conditions: Homo sapiens; for inhibition at 0.2 µM: read-out: Cell proliferation inhibition rate at 200 nM (%); for inhibition at 1 µM: read-out: Cell proliferation inhibition rate at 1 μM (%)
Experimental: Assays on the growth inhibition of the compounds against gastric tumor cell MKN45, non-small cell carcinoma EBC-1 cell (both are MET persistent activated cell lines due to MET gene amplification, and are Met dependent tumor cell lines, MKN45 cell was purchased from JCRB, Japan, EBC-1 cell was purchased from ATCC, USA) were detected using sulforhodamine B (SRB) staining. […] After incubation with compound for 72 hours, the incubation was terminated, adherent cells were retained and medium was discarded, 10% (w/v) trichloroacetic acid (100 μL pre well) was added, the cells were fixed at 4° C. for 1 hour, then rinsed with distilled water for 5 times, after dried at room temperature, SRB solution (4 mg/mL, dissolved in 1% glacial acetic acid) was added at 100 μL per well, incubated and stained at room temperature for 15 minutes, then rinsed with 1% glacial acetic acid for 5 times to remove any unbound SRB, dried at room temperature, then 10 mM Tris solution was added at 100 μL per well, the optical density (OD) value at 515 nm was measured using VERSMax microplate reader.
Experiments were conducted in duplicates. IC50 value was calculated by fitting the data for a four parameter fit using inhibition curve, the results are shown below in Table 2.

T1 sequence (P08581 1078-1345 limits assumed): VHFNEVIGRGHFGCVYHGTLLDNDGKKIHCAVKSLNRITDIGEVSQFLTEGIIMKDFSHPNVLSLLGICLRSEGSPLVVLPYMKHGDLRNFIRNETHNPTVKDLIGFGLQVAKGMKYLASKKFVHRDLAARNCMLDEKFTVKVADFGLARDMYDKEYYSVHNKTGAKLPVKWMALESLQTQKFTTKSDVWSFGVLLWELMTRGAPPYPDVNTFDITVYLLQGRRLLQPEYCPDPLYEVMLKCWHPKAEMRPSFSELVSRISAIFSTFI

COc1ccc(-c2ccc3ncc(S(=O)(=O)n4ncc5ncc(-c6cnn(C)c6)cc54)n3c2)cc1OC [Example 96, 1-{[6-(3,4-dimethoxyphenyl)-imidazo[1,2-a]pyridine]-3-sulfonyl}-6-[(1-methyl)-4-pyrazolyl]-1-H-pyrazolo[4,3-b]pyridine]
IC50 [1]: 0.7 ± 0.1 nM
inhibition at 0.1 µM [1]: 56.6%
inhibition at 1 µM [1]: 61.5%
inhibition at 10 µM [1]: 68.3%
inhibition at 10 µM [2]: > 71.8%

Cn1cc(-c2cnc3cnn(S(=O)(=O)c4cnc5ccc(-c6ccc7c(c6)OCO7)cn45)c3c2)cn1 [Example 98, 1-{[6-[5-(1,2-methylenedioxyphenyl)]-imidazo[1,2-a]pyridine]-3-sulfonyl}-6-[(1-methyl)-4-pyrazolyl]-1-H-pyrazolo[4,3-b]pyridine]
IC50 [1]: 1.4 ± 0.1 nM
inhibition at 0.1 µM [1]: 50.6%
inhibition at 1 µM [1]: 66.8%
inhibition at 10 µM [1]: 74.3%
inhibition at 10 µM [2]: > 77.9%

CNC(=O)c1ccc(-c2ccc3ncc(S(=O)(=O)n4ncc5ncc(-c6cnn(C)c6)cc54)n3c2)cc1F [Example 101, 1-{(6-(3-fluoro-4-methylaminocarbonylphenyl)-imidazo[1,2-a]pyridine)-3-sulfonyl}-6-[(1-methyl)-4-pyrazolyl]-1-H-pyrazolo[4,3-b]pyridine]
IC50 [1]: 0.3 ± 0.1 nM
inhibition at 0.1 µM [1]: 100%
inhibition at 1 µM [1]: 100%
inhibition at 10 µM [2]: > 64.5%

CC(C)c1c(-c2cnn(C)c2)cnc2cnn(S(=O)(=O)c3cnc4ccc(-c5cnn(C)c5)cn34)c12 [Example 103, 1-{(6-[(1-methyl)-4-pyrazolyl]-imidazo[1,2-a]pyridine)-3-sulfonyl}-6-[(1-methyl)-4-pyrazolyl]-7-isopropyl-1-H-pyrazolo[4,3-b]pyridine]
IC50 [1]: 3.2 ± 0.3 nM
inhibition at 0.1 µM [1]: 98.5%
inhibition at 1 µM [1]: 101%
inhibition at 0.2 µM ([3]; EBC-1, 72 h): 80.9%
inhibition at 1 µM ([3]; EBC-1, 72 h): 92.7%

O=S(=O)(c1cnc2ccc(-c3cn[nH]c3)cn12)n1ncc2ncc(-c3cn[nH]c3)cc21 [Example 104, 1-{[6-(4-pyrazolyl)-imidazo[1,2-a]pyridine]-3-sulfonyl}-6-(4-pyrazolyl)-1-H-pyrazolo[4,3-b]pyridine]
IC50 [1]: 2.1 ± 0.6 nM
inhibition at 0.1 µM [1]: 99.8%
inhibition at 1 µM [1]: 100%
inhibition at 0.2 µM ([3]; EBC-1, 72 h): 85.7%
inhibition at 1 µM ([3]; EBC-1, 72 h): 89.2%

Cn1cc(-c2cnc3cnn(S(=O)(=O)c4cnc5ccc(-c6cn[nH]c6)cn45)c3c2)cn1 [Example 105, 1-{[6-(4-pyrazolyl)-imidazo[1,2-a]pyridine]-3-sulfonyl}-6-[(1-methyl)-4-pyrazolyl]-1-H-pyrazolo[4,3-b]pyridine]
IC50 [1]: 2.6 ± 0.4 nM
inhibition at 0.1 µM [1]: 97.8%
inhibition at 1 µM [1]: 100%
inhibition at 0.2 µM ([3]; EBC-1, 72 h): 77.7%
inhibition at 1 µM ([3]; EBC-1, 72 h): 91.5%

Cn1cc(-c2ccc3ncc(S(=O)(=O)n4ncc5ncc(-c6cn[nH]c6)cc54)n3c2)cn1 [Example 106, 1-{(6-[(1-methyl)-4-pyrazolyl]-imidazo[1,2-a]pyridine)-3-sulfonyl}-6-(4-pyrazolyl)-1-H-pyrazolo[4,3-b]pyridine]
IC50 [1]: 1.9 ± 0.1 nM
inhibition at 0.1 µM [1]: 104%
inhibition at 1 µM [1]: 101%
inhibition at 0.2 µM ([3]; EBC-1, 72 h): 37%
inhibition at 1 µM ([3]; EBC-1, 72 h): 85.7%

Cn1cc(-c2cnc3[nH]cc(S(=O)(=O)n4ncc5cccnc54)c3c2)cn1 [Example 107, 1-{(5-[(1-methyl)-4-pyrazolyl])-1-H-pyrrolo [2,3-b]pyridine-3-sulfonyl}-1-H-pyrazolo[3,4-b]pyridine]
inhibition at 0.1 µM [1]: 29.1%
inhibition at 1 µM [1]: 88.2%
inhibition at 0.2 µM ([3]; EBC-1, 200 nM, 72 hours): 18.9%
inhibition at 1 µM ([3]; EBC-1, 1 μM, 72 hours): 18.1%

CCOc1cccc(-c2cnc3cnn(S(=O)(=O)c4cnc5ccc([N+](=O)[O-])cn45)c3c2)c1 [Example 113, 1-[(6-nitro-imidazo[1,2-a]pyridine)-3-sulfonyl]-6-(3-ethoxyphenyl)-1-H-pyrazolo[4,3-b]pyridine]
inhibition at 0.1 µM [1]: 48.6%
inhibition at 1 µM [1]: 97.7%
inhibition at 0.2 µM ([3]; EBC-1, 200 nM, 72 hours): 7.9%
inhibition at 1 µM ([3]; EBC-1, 1 μM, 72 hours): 9%

COc1ccc2ncc(S(=O)(=O)n3ncc4ncc(-c5cnn(C)c5)cc43)n2c1 [Example 121, 1-[(6-methoxy-imidazo[1,2-a]pyridine)-3-sulfonyl]-6-[(1-methyl)-4-pyrazolyl]-1-H-pyrazolo[4,3-b]pyridine]
IC50 [1]: 9 ± 1 nM
inhibition at 0.1 µM [1]: 99%
inhibition at 1 µM [1]: 101%
inhibition at 0.2 µM ([3]; EBC-1, 72 h): 91.6%
inhibition at 1 µM ([3]; EBC-1, 72 h): 92.5%

COc1ccc2ncc(S(=O)(=O)n3ncc4ncc(-c5ccc(N6CCOCC6)cc5)cc43)n2c1 [Example 124, 1-[(6-methoxy-imidazo[1,2-a]pyridine)-3-sulfonyl]-6-(4-morpholinylphenyl)-1-H-pyrazolo[4,3-b]pyridine]
IC50 [1]: 4.7 ± 1 nM
inhibition at 0.1 µM [1]: 94.4%
inhibition at 1 µM [1]: 99.7%
inhibition at 0.2 µM ([3]; EBC-1, 72 h): 43.1%
inhibition at 1 µM ([3]; EBC-1, 72 h): 92.7%

COc1ccc(-c2cnc3cnn(S(=O)(=O)c4cnc5ccc(O)cn45)c3c2)cc1 [Example 126, 1-[(6-hydroxy-imidazo[1,2-a]pyridine)-3-sulfonyl]-6-(4-methoxyphenyl)-1-H-pyrazolo[4,3-b]pyridine]
IC50 [1]: 7.3 ± 1.1 nM
inhibition at 0.1 µM [1]: 100%
inhibition at 1 µM [1]: 100%
inhibition at 0.2 µM ([3]; EBC-1, 72 h): 35.1%
inhibition at 1 µM ([3]; EBC-1, 72 h): 87%

CC(C)C(=O)Oc1ccc2ncc(S(=O)(=O)n3ncc4ncc(-c5cnn(C)c5)cc43)n2c1 [Example 128, 1-[(6-isobutyryloxy-imidazo[1,2-a]pyridine)-3-sulfonyl]-6-[(1-methyl)-4-pyrazolyl]-1-H-pyrazolo[4,3-b]pyridine]
IC50 [1]: 2 ± 0.2 nM
inhibition at 0.1 µM [1]: 99.4%
inhibition at 1 µM [1]: 99.3%
inhibition at 0.2 µM ([3]; EBC-1, 72 h): 80.6%
inhibition at 1 µM ([3]; EBC-1, 72 h): 87%

Cn1cc(-c2cnc3cnn(S(=O)(=O)c4cnc5ccc(OC(=O)c6ccco6)cn45)c3c2)cn1 [Example 129, 1-[(6-furan-2-acyloxy-imidazo[1,2-a]pyridine)-3-sulfonyl]-6-[(1-methyl)-4-pyrazolyl]-1-H-pyrazolo[4,3-b]pyridine]
IC50 [1]: 2.7 ± 0.5 nM
inhibition at 0.1 µM [1]: 99.6%
inhibition at 1 µM [1]: 101%
inhibition at 0.2 µM ([3]; EBC-1, 72 h): 79%
inhibition at 1 µM ([3]; EBC-1, 72 h): 86.6%

CCC(=O)Nc1cnc2cnn(S(=O)(=O)c3cnc4ccc(Br)cn34)c2c1 [Example 132, 1-[(6-bromo-imidazo[1,2-a]pyridine)-3-sulfonyl]-6-propionamido-1-H-pyrazolo[4,3-b]pyridine]
inhibition at 0.1 µM [1]: 92.1%
inhibition at 1 µM [1]: 100%
inhibition at 0.2 µM ([3]; EBC-1, 200 nM, 72 hours): 48.2%
inhibition at 1 µM ([3]; EBC-1, 1 μM, 72 hours): 85.4%

Cn1cc(-c2ccc3ncc(S(=O)(=O)n4ncc5ncc(NC(=O)c6ccccc6)cc54)n3c2)cn1 [Example 133, 1-{(6-[(1-methyl)-4-pyrazolyl]-imidazo[1,2a]pyridine)-3-sulfonyl}-6-benzamido-1-H-pyrazolo[4,3-b]pyridine]
IC50 [1]: 2.6 ± 0.2 nM
inhibition at 0.1 µM [1]: 100%
inhibition at 1 µM [1]: 100%
inhibition at 0.2 µM ([3]; EBC-1, 72 h): 86.4%
inhibition at 1 µM ([3]; EBC-1, 72 h): 87.8%

Cn1cc(-c2ccc3ncc(S(=O)(=O)n4ncc5ncc(C6=CCN(C7CCCC7)CC6)cc54)n3c2)cn1 [Example 135, 1-{(6-[(1-methyl)-4-pyrazolyl]-imidazo[1,2-a]pyridine)-3-sulfonyl}-6-[(1-cyclopentyl)-4-(1,2,3,6-tetrahydropyridinyl)]-1-H-pyrazolo[4,3-b]pyridine]
IC50 [1]: 2.6 ± 0.2 nM
inhibition at 0.1 µM [1]: 87.4%
inhibition at 1 µM [1]: 88.2%
inhibition at 0.2 µM ([3]; EBC-1, 72 h): 89.4%
inhibition at 1 µM ([3]; EBC-1, 72 h): 91.4%

Cn1cc(-c2ccc3ncc(S(=O)(=O)n4ncc5ncc(-c6cnn(C7CCN(C8CCCC8)CC7)c6)cc54)n3c2)cn1 [Example 136, 1-{(6-[(1-methyl)-4-pyrazolyl]-imidazo[1,2-a]pyridine)-3-sulfonyl}-6-{{1-[(1-cyclopentyl)-4-piperidinyl]}-4-pyrazolyl}-1-H-pyrazolo[4,3-b]pyridine]
IC50 [1]: 1.2 ± 0.1 nM
inhibition at 0.1 µM [1]: 90.2%
inhibition at 1 µM [1]: 91.3%
inhibition at 0.2 µM ([3]; EBC-1, 72 h): 91.4%
inhibition at 1 µM ([3]; EBC-1, 72 h): 92.4%

CC(C)N1CC=C(c2cnc3cnn(S(=O)(=O)c4cnc5ccc(-c6cnn(C)c6)cn45)c3c2)CC1 [Example 137, 1-{(6-[(1-methyl)-4-pyrazolyl]-imidazo[1,2-a]pyridine)-3-sulfonyl}-6-[(1-isopropyl)-4-(1,2,3,6-tetrahydropyridinyl)]-1-H-pyrazolo[4,3-b]pyridine]
IC50 [1]: 1.3 ± 0.1 nM
inhibition at 0.1 µM [1]: 91.6%
inhibition at 1 µM [1]: 89.9%
inhibition at 0.2 µM ([3]; EBC-1, 72 h): 73%
inhibition at 1 µM ([3]; EBC-1, 72 h): 92.4%
